Assay results reported in PMC3596500 (Pharmaceutical research, 2012).
Entries after “also recorded” stand apart in the source; their conditions may differ. Like-named read-outs stand apart in the source and are kept apart here. One block for each molecule: values may come before it. Square brackets hold non-standard residues; d marks the D form. Peptide text beside a SMILES is read from it. Sar = CNCC(=O)O

Key:
PepT1 [1] = target: T1, PepT1 (Mus musculus, UniProt Q9JIP7); assay: Co-perfusion of cefadroxil with dimethyl-amiloride; settings: 0.1 mM DMA co-perfused with 10 μM cefadroxil, pH 6.5, wild-type mice
T1 sequence (Q9JIP7 1-709): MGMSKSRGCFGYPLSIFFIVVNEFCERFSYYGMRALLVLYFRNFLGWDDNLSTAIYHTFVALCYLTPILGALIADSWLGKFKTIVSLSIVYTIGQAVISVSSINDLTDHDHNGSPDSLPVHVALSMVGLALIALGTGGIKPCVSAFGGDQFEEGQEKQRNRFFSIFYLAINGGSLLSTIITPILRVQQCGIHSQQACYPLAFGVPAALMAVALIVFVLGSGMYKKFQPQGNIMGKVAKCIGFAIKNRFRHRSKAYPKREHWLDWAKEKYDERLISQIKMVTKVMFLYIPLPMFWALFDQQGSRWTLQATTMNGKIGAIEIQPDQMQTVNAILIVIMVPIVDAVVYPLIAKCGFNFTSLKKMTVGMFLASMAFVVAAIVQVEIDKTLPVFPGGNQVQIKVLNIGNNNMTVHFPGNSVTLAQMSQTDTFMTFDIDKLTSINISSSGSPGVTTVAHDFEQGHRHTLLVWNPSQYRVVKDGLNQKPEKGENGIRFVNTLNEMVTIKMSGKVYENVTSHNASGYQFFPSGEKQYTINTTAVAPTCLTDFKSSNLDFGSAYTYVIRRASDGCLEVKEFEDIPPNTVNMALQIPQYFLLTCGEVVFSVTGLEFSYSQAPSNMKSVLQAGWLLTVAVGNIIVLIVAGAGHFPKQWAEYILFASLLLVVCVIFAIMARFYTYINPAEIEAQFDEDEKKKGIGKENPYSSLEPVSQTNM

PepT1 [2] = target: T1, PepT1; settings: 25 mM inhibitor co-perfused with 10 μM cefadroxil, pH 6.5, wild-type mice
PepT1 [3] = settings: cited from earlier work
[4] = after oral dipeptide administration; cited from earlier work
PepT1 [5] = assay type: in vivo, mice; settings: for Peff: 10 μM cefadroxil, pH 6.5
PepT1 [6] = target: T1, PepT1; assay type: in vivo, mice; settings: wild-type mice, 10 μM cefadroxil, pH 6.5
PepT1 [7] = target: T1, PepT1; assay: pH-dependent jejunal permeability of cefadroxil, in situ perfusion; assay type: in vivo; settings: 10 μM cefadroxil, jejunum, wild-type mice, pH 5.5 to 7.5
PepT1 [8] = settings: PepT1 cRNA-injected Xenopus oocytes; cited from earlier work
[9] = in situ perfusions in proximal small intestine, cited from earlier work
[10] = mouse, in vivo, po
PepT1 [11] = target: T1, PepT1; settings: jejunum, wild-type mice, pH 6.5
[12] = cited from earlier work
[13] = cited from earlier work; remark: listed apart in the source
Caco-2 cells = settings: cited from earlier work

SMILES: CN(C)c1nc(N)c(C(=O)NC(=N)N)nc1Cl [DMA, 5-(N,N-dimethyl)amiloride]
- effect on PepT1-mediated jejunal permeability/uptake of cefadroxil (PepT1 [1]): inhibited
- reduction of cefadroxil permeability (PepT1 [1]): about 60%

SMILES: NCC(=O)O [Gly, glycine]
- effect on jejunal effective permeability of cefadroxil (PepT1 [2]): no significant effect

SMILES: NCC(=O)N1CCC[C@H]1C(=O)O [GlyPro, glycylproline] (H-Gly-Pro-OH)
- effect on jejunal effective permeability of cefadroxil (PepT1 [2]): significantly decreased

SMILES: CC[N+](CC)(CC)CC [TEA]
- effect on jejunal effective permeability of cefadroxil (PepT1 [2]): lack of effect

SMILES: CC(=O)OCC1=C(C(=O)O)N2C(=O)[C@@H](NC(=O)Cc3cccs3)[C@H]2SC1 [cephalothin]
- effect on jejunal effective permeability of cefadroxil (PepT1 [2]): not affected; also recorded: no significant effect; also recorded: lack of effect

Now from value to molecule, other results behind:

- effect on jejunal effective permeability of cefadroxil (PepT1 [2]): significantly decreased
SMILES: CN(CC(=O)O)C(=O)CN [GlySar, glycylsarcosine] (H-Gly-[Sar]-OH)
- increase of permeability (PepT1 [3]; pH 5.5, in situ perfusion, mice): 36%
- reduction (systemic exposure) in PepT1 knockout vs. wild-type mice [4]: ~2 fold

- effect on jejunal effective permeability of cefadroxil (PepT1 [2]): no significant effect
SMILES: N[C@@H](Cc1c[nH]cn1)C(=O)O [L-His, L-histidine]

- effect on jejunal effective permeability of cefadroxil (PepT1 [2]): no significant effect
SMILES: CNC(=O)c1cccnc1 [NMN, N-methylnicotinamide]

- Peff (PepT1 [5]; PepT1 knockout mice, colon): 3.2 ×10⁻⁶ cm/s
- Peff (PepT1 [5]; PepT1 knockout mice, ileum): 4.2 ×10⁻⁶ cm/s
- Peff (PepT1 [5]; PepT1 knockout mice, jejunum): 9 ×10⁻⁶ cm/s
- difference between genotypes in the permeability in colon (PepT1 [5]; colon, wild-type vs PepT1 knockout): no significant difference
- permeability in PepT1 knockout mice as compared to wild-type mice (PepT1 [5]; duodenum): 4%
- permeability in PepT1 knockout mice as compared to wild-type mice (PepT1 [5]; ileum): 5%
- permeability in PepT1 knockout mice as compared to wild-type mice (PepT1 [5]; jejunum): 12%
- Peff (PepT1 [5]; wild-type mice, colon): 6.4 ×10⁻⁶ cm/s
- Peff (PepT1 [6]; duodenum): 49 ×10⁻⁶ cm/s
- Peff (PepT1 [6]; ileum): 88 ×10⁻⁶ cm/s
- Peff (PepT1 [6]; jejunum): 80 ×10⁻⁶ cm/s
- Tmax increase, PepT1 knockout vs wild-type [10]: ~4 fold
- K′m (apparent) (PepT1 [11]; based on bulk fluid (inlet) concentrations): 3.8 ± 1.2 mM
- Vmax (intrinsic) (PepT1 [11]; referenced to membrane surface concentration Cw): 4.5 ± 0.3 nmol/cm^2/sec
SMILES: CC1=C(C(=O)O)N2C(=O)[C@@H](NC(=O)[C@H](N)c3ccc(O)cc3)[C@H]2SC1 [cefadroxil]
- effect on jejunal permeability of GlySar (PepT1 [3]; co-perfusion of cefadroxil at saturating concentrations, wild-type mice): significantly reduced
- effect of perfusate pH on effective permeability (PepT1 [7]): no significant differences; also recorded: not significantly affected
- Michaelis constant (PepT1 [8]): 1.1 mM
- Michaelis constant ([9]; ref 12): 5.9 mM
- Michaelis constant ([9]; ref 13): 6.6 mM
- binding to plasma proteins [12]: about 20%
- half-life [13]: ~ 95 min
- decrease of uptake (Caco-2 cells; further reducing the pH to 5.5): 50%
- increase of drug uptake (Caco-2 cells; shifting the pH from 7.4 to 6.0): about 4 fold
